Experimental findings from BindingDB's records for doi:10.1021/jm00088a003 (Merck Research Laboratories, 1992) are described below.

This assay concerns the target T1, Dimer of Gag-Pol polyprotein [489-587] (Human immunodeficiency virus 1, UniProt P12497).
T1 construct: 489-587
Kind of assay: Protease Inhibition Assay. Particulars: pH 5.5; 30 °C. The procedure:
Sensitivity of HIV-1 protease activity to protease inhibitors was determined by a peptide substrate cleavage assay. Protease products were analyzed on a reverse-phase high-pressure liquid chromatograph.
The IC50 is the concentration that gives 50% inhibition. Higher therefore signals a need for much substance. `CC(C)(C)OC(=O)N[C@@H](Cc1ccccc1)[C@@H](O)C[C@@H](Cc1ccc(OCC(=O)O)cc1)C(=O)N[C@H]1c2ccccc2C[C@H]1O` [2-{4-[(2R)-2-[(2S,3S)-3-{[(tert-butoxy)carbonyl]amino}-2-hydroxy-4-phenylbutyl]-2-{[(1S,2R)-2-hydroxy-2,3-dihydro-1H-inden-1-yl]carbamoyl}ethyl]phenoxy}acetic acid] had an IC50 of 40 pM.
With `CC(C)(C)OC(=O)N[C@@H](Cc1ccccc1)[C@@H](O)C[C@@H](Cc1ccc(OCCN2CCCCC2)cc1)C(=O)N[C@H]1c2ccccc2C[C@H]1O` [tert-butyl N-[(2S,3S,5R)-3-hydroxy-5-{[(1S,2R)-2-hydroxy-2,3-dihydro-1H-inden-1-yl]carbamoyl}-1-phenyl-5-({4-[2-(piperidin-1-yl)ethoxy]phenyl}methyl)pentan-2-yl]carbamate], the IC50 came to 1600 pM.
`CC(C)(C)OC(=O)N[C@@H](Cc1ccc(OCCN2CCOCC2)cc1)[C@@H](O)C[C@@H](Cc1ccc(OCCN2CCOCC2)cc1)C(=O)N[C@H]1c2ccccc2C[C@H]1O` [tert-butyl N-[(2S,3S,5R)-3-hydroxy-5-{[(1S,2R)-2-hydroxy-2,3-dihydro-1H-inden-1-yl]carbamoyl}-1-{4-[2-(morpholin-4-yl)ethoxy]phenyl}-5-({4-[2-(morpholin-4-yl)ethoxy]phenyl}methyl)pentan-2-yl]carbamate] returned an IC50 of 1900 pM.
`CC(C)(C)OC(=O)N[C@@H](Cc1ccccc1)[C@@H](O)C[C@@H](Cc1ccc(OCC[N+]2(O)CCOCC2)cc1)C(=O)N[C@H]1c2ccccc2C[C@H]1O` [4-(2-{4-[(2R)-2-[(2S,3S)-3-{[(tert-butoxy)carbonyl]amino}-2-hydroxy-4-phenylbutyl]-2-{[(1S,2R)-2-hydroxy-2,3-dihydro-1H-inden-1-yl]carbamoyl}ethyl]phenoxy}ethyl)-4-hydroxymorpholin-4-ium] had an IC50 of 200 pM.
As for `CC(C)(C)OC(=O)N[C@@H](Cc1ccc(O)cc1)[C@@H](O)C[C@@H](Cc1ccc(O)cc1)C(=O)N[C@H]1c2ccccc2C[C@H]1O` [N-(2(R)-Hydroxy-1(S)-indanyl)-5(S)-[(tert-butyloxycarbonyl)amino]-4(S)-hydroxy-6-(4-hydroxyphenyl)-2-(R)-[(4-hydroxyphenyl)methyl]hexanamide], the figure is 150 pM; as for `CC(C)(C)OC(=O)N[C@@H](Cc1ccccc1)[C@@H](O)C[C@@H](Cc1ccc(OCC(=O)N2CCOCC2)cc1)C(=O)N[C@H]1c2ccccc2C[C@H]1O` [tert-butyl N-[(2S,3S,5R)-3-hydroxy-5-{[(1S,2R)-2-hydroxy-2,3-dihydro-1H-inden-1-yl]carbamoyl}-5-({4-[2-(morpholin-4-yl)-2-oxoethoxy]phenyl}methyl)-1-phenylpentan-2-yl]carbamate], 200 pM; as for `CC(C)(C)OC(=O)N[C@@H](Cc1ccccc1)[C@@H](O)C[C@@H](Cc1ccc(OCCN2CCS(=O)(=O)CC2)cc1)C(=O)N[C@H]1c2ccccc2C[C@H]1O` [N-(2(R)-Hydroxy-1(S)-indanyl)-5(S)-[(tert-butyloxycarbonyl)amino]-4(S)-hydroxy-6-phenyl-2(R)-[[4-[2-(1,1-dioxythiamorpholin-4-yl)ethoxy]phenyl]methyl]hexanamide], 80 pM.
For `CC(C)(C)OC(=O)N[C@@H](Cc1ccccc1)[C@@H](O)C[C@@H](Cc1ccc(OCCO)cc1)C(=O)N[C@H]1c2ccccc2C[C@H]1O` [tert-butyl N-[(2S,3S,5R)-3-hydroxy-5-{[(1S,2R)-2-hydroxy-2,3-dihydro-1H-inden-1-yl]carbamoyl}-5-{[4-(2-hydroxyethoxy)phenyl]methyl}-1-phenylpentan-2-yl]carbamate] the value was 90 pM; for `CC(C)(C)OC(=O)N[C@@H](Cc1ccccc1)[C@@H](O)C[C@@H](Cc1ccc(OCCN2CCSCC2)cc1)C(=O)N[C@H]1c2ccccc2C[C@H]1O` [N-(2(R)-Hydroxy-1(S)-indanyl)-5(S)-[(tert-butyloxycarbonyl)amino]-4(S)-hydroxy-6-phenyl-2(R)-[[4-[2-(thiamorpholin-4-yl)ethoxy]phenyl]methyl]hexanamide], 470 pM.
For the compound `CC(C)(C)OC(=O)N[C@@H](Cc1ccc(OCCN2CCOCC2)cc1)[C@@H](O)C[C@@H](Cc1ccccc1)C(=O)N[C@H]1c2ccccc2C[C@H]1O` [tert-butyl N-[(2S,3S,5R)-5-benzyl-3-hydroxy-5-{[(1S,2R)-2-hydroxy-2,3-dihydro-1H-inden-1-yl]carbamoyl}-1-{4-[2-(morpholin-4-yl)ethoxy]phenyl}pentan-2-yl]carbamate], half-maximal inhibition (IC50) required 550 pM. This IC50 and that of the compound before are within 1.5-fold of each other.
Compound `CN(C)CCOc1ccc(C[C@H](C[C@H](O)[C@H](Cc2ccccc2)NC(=O)OC(C)(C)C)C(=O)N[C@H]2c3ccccc3C[C@H]2O)cc1` [tert-butyl N-[(2S,3S,5R)-5-({4-[2-(dimethylamino)ethoxy]phenyl}methyl)-3-hydroxy-5-{[(1S,2R)-2-hydroxy-2,3-dihydro-1H-inden-1-yl]carbamoyl}-1-phenylpentan-2-yl]carbamate] returned a half-inhibitory concentration (IC50) of 2100 pM.
With `CC(C)(C)OC(=O)N[C@@H](Cc1ccccc1)[C@@H](O)C[C@@H](Cc1ccc(OCCN2CC[S+]([O-])CC2)cc1)C(=O)N[C@H]1c2ccccc2C[C@H]1O` [tert-butyl N-[(2S,3S,5R)-3-hydroxy-5-{[(1S,2R)-2-hydroxy-2,3-dihydro-1H-inden-1-yl]carbamoyl}-5-({4-[2-(1-oxo-1,4-thiomorpholin-4-yl)ethoxy]phenyl}methyl)-1-phenylpentan-2-yl]carbamate], inhibition was half-maximal at 70 pM (IC50).
For `CC(C)(C)OC(=O)N[C@@H](Cc1ccccc1)[C@@H](O)C[C@@H](Cc1ccc(OCCN2CCCC2)cc1)C(=O)N[C@H]1c2ccccc2C[C@H]1O` [tert-butyl N-[(2S,3S,5R)-3-hydroxy-5-{[(1S,2R)-2-hydroxy-2,3-dihydro-1H-inden-1-yl]carbamoyl}-1-phenyl-5-({4-[2-(pyrrolidin-1-yl)ethoxy]phenyl}methyl)pentan-2-yl]carbamate] the value was 1800 pM; for `COCCN(CCOC)CCOc1ccc(C[C@H](C[C@H](O)[C@H](Cc2ccccc2)NC(=O)OC(C)(C)C)C(=O)N[C@H]2c3ccccc3C[C@H]2O)cc1` [N-(2(R)-Hydroxy-1(S)-indanyl)-5(S)-[(tert-butyloxycarbonyl)amino]-4(S)-hydroxy-6-phenyl-2(R)-[[4-[2-[N,N-bis(2-methoxyethyl)amino]ethoxy]phenyl]methyl]hexanamide], 900 pM; for `CN1CCN(CCOc2ccc(C[C@H](C[C@H](O)[C@H](Cc3ccccc3)NC(=O)OC(C)(C)C)C(=O)N[C@H]3c4ccccc4C[C@H]3O)cc2)CC1` [tert-butyl N-[(2S,3S,5R)-3-hydroxy-5-{[(1S,2R)-2-hydroxy-2,3-dihydro-1H-inden-1-yl]carbamoyl}-5-({4-[2-(4-methylpiperazin-1-yl)ethoxy]phenyl}methyl)-1-phenylpentan-2-yl]carbamate], 200 pM.
As for `CC(C)(C)OC(=O)N[C@@H](Cc1ccc(O)cc1)[C@@H](O)C[C@@H](Cc1ccccc1)C(=O)N[C@H]1c2ccccc2C[C@H]1O` [N-(2(R)-Hydroxy-1(S)-indanyl)-5(S)-[(tert-butyloxycarbonyl)amino]-4(S)-hydroxy-6-(4-hydroxyphenyl)-2-(R)-(phenylmethyl)hexanamide], the figure is 350 pM.
Regarding `CC(C)(C)OC(=O)N[C@@H](Cc1ccccc1)[C@@H](O)C[C@@H](Cc1ccc(OCc2ccccc2)cc1)C(=O)N[C@H]1c2ccccc2C[C@H]1O` [N-(2(R)-Hydroxy-1(S)-indany1)-5(S)-[(tert-butyloxycarbonyl)amino]-4(S)-hydroxy-6-phenyl-2(R)-[[4-(benzyloxy)phenyl]methyl]hexanamide], half-maximal inhibition (IC50) required 180 pM.
